Article PMC8921294, “Inhibition of mitochondrial LonP1 protease by allosteric blockade of ATP binding and hydrolysis via CDDO and its derivatives” (The Journal of Biological Chemistry, 2022)

Experiments:
[1] = tested on: heme oxygenase 1 (HO-1); assay: HO-1 stabilisation in HeLa ρ^0 cells (immunoblot); format: cell-based, human; conditions: 7 h
Procedure: LonP1 knockdown stabilized HO-1 protein, whereas LonP1 overexpression decreased HO-1 protein (Fig. 4, E and F).
(§1) HeLa cells devoid of mitochondrial DNA (HeLa ρ^0) and LCL cells were generated as described previously ([50]). DMEM, RPMI, and fetal bovine serum were purchased from Sigma. All cells were grown with 5% CO2 at 37 °C. LCL cells were cultured in RPMI supplemented with 15% FBS. HeLa Rho 0 cells were cultured in high glucose DMEM (25 mM) (Sigma) supplemented with sodium pyruvate ([…]) and uridine ([…]). CDDO-Me was purchased from Cayman chemicals, and CDDO-AH was synthesized as described previously ([20]). HEK293 cells plated in 60 mm dishes at a confluency of 60 to 70% were transfected with Control or 3′UTR LonP1 siRNA using Lipofectamine 2000 (Invitrogen) and reduced serum OPTI MEM (Sigma) as described in the manufacturer’s protocol to knockdown LonP1, whereas adenoviral transduction was employed to overexpress LonP1. CDDO-Me and CDDO-anhydride were dissolved in DMSO and serially diluted in the respective complete medium and added to HeLa ρ^0 cells and were treated for 7 or 24 h.
(§2) Cells were harvested, centrifuged, and washed with PBS and proteins were extracted by adding the lysis buffer (50 mM Tris, [pH 7.5], 300 mM NaCl, and 0.5% Triton X-100) containing 2X Halt phosphatase and protease cocktail inhibitor (Thermo Scientific) for 20 min on ice. […]

[2] = target: T1, Human LonP1 protease (Homo sapiens, UniProt P36776); assay: FITC-casein protease assay (ATP-dependent proteolysis); format: biochemical; conditions: for Inhibition of LonP1-mediated degradation of FITC-casein: 30 min preincubation at 30 °C, ATP 4 mM; for Preincubation time after which ATP-dependent proteolysis is inhibited: preincubation at 30 °C
T1 construct: hexa-histidine (N); made in house; host or cells: Rosetta 2 E. coli
T1 sequence (P36776 68-959): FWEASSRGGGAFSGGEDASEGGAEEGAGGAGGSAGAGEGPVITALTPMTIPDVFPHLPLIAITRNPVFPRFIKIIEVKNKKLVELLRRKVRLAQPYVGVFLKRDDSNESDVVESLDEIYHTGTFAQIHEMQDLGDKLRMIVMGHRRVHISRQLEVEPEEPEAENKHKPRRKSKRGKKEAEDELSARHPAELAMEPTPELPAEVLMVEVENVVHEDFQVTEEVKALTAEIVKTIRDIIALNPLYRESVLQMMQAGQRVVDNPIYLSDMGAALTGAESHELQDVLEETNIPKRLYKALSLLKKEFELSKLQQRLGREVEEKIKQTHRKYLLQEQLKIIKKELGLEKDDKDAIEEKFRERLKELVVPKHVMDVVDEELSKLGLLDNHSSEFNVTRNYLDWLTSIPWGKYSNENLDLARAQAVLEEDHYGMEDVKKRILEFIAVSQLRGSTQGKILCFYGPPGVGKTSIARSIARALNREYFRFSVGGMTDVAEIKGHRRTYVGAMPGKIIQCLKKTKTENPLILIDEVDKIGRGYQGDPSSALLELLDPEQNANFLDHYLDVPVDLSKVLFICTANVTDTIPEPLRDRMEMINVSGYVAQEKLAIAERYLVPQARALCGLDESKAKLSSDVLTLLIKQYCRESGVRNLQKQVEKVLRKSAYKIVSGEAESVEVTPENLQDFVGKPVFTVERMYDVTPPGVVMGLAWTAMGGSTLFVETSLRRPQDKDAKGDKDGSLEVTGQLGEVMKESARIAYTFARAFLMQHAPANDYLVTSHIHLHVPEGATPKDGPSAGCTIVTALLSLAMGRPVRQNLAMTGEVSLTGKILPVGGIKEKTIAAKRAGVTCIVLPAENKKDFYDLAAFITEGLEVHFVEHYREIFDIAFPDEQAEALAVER
Procedure: Human LonP1 (1.0 μM monomer) was preincubated with CDDO derivatives, TP-82, enoxolone (5 μM) or DMSO vehicle control (1%) in buffer (150 mM NaCl, 50 mM Hepes-KOH pH 8.0, 10 mM MgCl2, 0.1 mg/ml BSA) for 30 min at 30 °C. Reactions were initiated by the addition of FITC-casein (0.1 mg/ml) and ATP (4.0 mM) and incubated at 37 °C. The kinetics of FITC-casein degradation was measured by the increase in relative fluorescence units (RFU) at 490–525 nm wavelength at 37 °C using a Spectramax or Biotek Synergy plate reader. For endpoint assays, aliquots of reactions incubated at 37 °C were removed at indicated time points and terminated by adding 5X reducing sample buffer (RSB). The decrease of intact FITC-casein was determined by SDS-PAGE followed by visualization using FluorChem or Chemi-Doc systems.
Reactions (500 μl) containing LonP1 (1.0 μM monomer) in buffer (150 mM NaCl, 50 mM Hepes-KOH pH 8.0, 10 mM MgCl2) were preincubated with CDDO-Me (10 μM) or DMSO (1%) for 60 min at 30 °C. After this period, respective aliquots (50 μl) were removed and assayed for FITC-casein degradation to confirm inhibition by CDDO-Me. The remaining 450 μl reaction was transferred to a Slide-A-Lyzer (100 kDa MWCO) and dialyzed against 500 ml Buffer K (50 mM Hepes KOH, pH 8.0, 150 mM NaCl, 10 mM MgOAc2, 20% glycerol) for 24 h at 4 °C. After this period, the protein concentration was measured to determine protein recovery and the protease activity of LonP1, which had been preincubated with and without CDDO-Me was measured using the FITC-casein degradation assay.

[3] = tested on: HeLa ρ^0 cells; assay: Cytotoxicity/apoptosis in HeLa ρ^0 cells (cleaved PARP, procaspase 3 immunoblot); format: cell-based, human; conditions: 7 h, Fig. 4D
Procedure: as §1
as §2, with “ice. After centrifugation at 14,000 rpm for 15 min at 4 °C, the supernatant was collected and estimated for protein by Bradford’s method.” for “ice.”

| Structure (SMILES) | Concentration stabilising HO-1 [1] [µM] | Reversibility: proteolytic activity after dialysis ([2]; 10 μM, dialysis at 4 °C for 24 h) | Degradation of FITC-casein before dialysis ([2]; 10 μM, preincubation 60 min at 30 °C) | Inhibition of LonP1-mediated degradation of FITC-casein [2] | Preincubation time after which ATP-dependent proteolysis is inhibited [2] [min] | Concentration up to which no change in procaspase 3 levels was observed [3] |
| --- | --- | --- | --- | --- | --- | --- |
| COC(=O)[C@]12CCC(C)(C)C[C@H]1[C@H]1C(=O)C=C3[C@@]4(C)C=C(C#N)C(=O)C(C)(C)[C@@H]4CC[C@@]3(C)[C@]1(C)CC2 [CDDO-Me] | ≥ 0.125 | restored proteolytic activity | completely block | inhibit | 5 |  |
| CC1(C)CC[C@]2(C(=O)O)CC[C@]3(C)[C@H](C(=O)C=C4[C@@]5(C)C=C(C#N)C(=O)C(C)(C)[C@@H]5CC[C@]43C)[C@@H]2C1 [CDDO, 2-cyano-3,12-dioxooleana-1,9(11)-dien-28-oic acid] |  |  |  | inhibit | ≥ 20 |  |
| CC1(C)CC[C@]2(C(=O)OC(=O)[C@]34CCC(C)(C)C[C@H]3[C@H]3C(=O)C=C5[C@@]6(C)C=C(C#N)C(=O)C(C)(C)[C@@H]6CC[C@@]5(C)[C@]3(C)CC4)CC[C@]3(C)[C@H](C(=O)C=C4[C@@]5(C)C=C(C#N)C(=O)C(C)(C)[C@@H]5CC[C@]43C)[C@@H]2C1 [CDDO-anhydride] | ≥ 0.25 |  |  |  |  | up to 5 μM |
